How the values were obtained:
Assay type in all cases: cell-based
glioma cells [1] = experiment: in situ zymography of cell surface gelatinolytic activity; details: 50 μM, 30 minutes at 37° C.
Description: FITC-labeled DQ gelatin which is intramolecularly quenched (Molecular Probes, Eugene, Oreg.) was used as a substrate for degradation by gelatinases as reported earlier (Oh et al., 1999). Proteolysis by gelatinases yields cleaved FITC-gelatin peptides and the localization of this fluorescence indicates the sites of net gelatinolytic activity. Briefly, glioma cells were plated on 12 mm coverslips. […] Untreated cells served as negative control for this experiment. Cells were then washed with PBS and then incubated with zymography reaction buffer (0.05 M Tris-HCl, 0.15 M NaCl, 5 mM CaCl2 and 0.2 mM NaN3, pH 7.6- the high concentration of azide will prevent the gelatin from phagocytosing and thus allow cell surface gelatinolytic activity to occur) containing 100 μg/ml DQ gelatin at 37° C. overnight. At the end of the incubation period, without fixation or further washes, gelatinolytic activity of the MMP-s was localized and photographed by fluorescence microscopy and the images were acquired by Spot digital camera.

glioma cells [2] = experiment: release of mature MMP-2 into conditioned media (Western blot, gelatinase activity assay); details: 50 μM
Description: For these experiments, glioma cells were plated in 96 well (5000 cells/well) or 24 well plates (2.5×10^4/well) in serum containing medium (SCM). After overnight incubation, cell cultures were washed and incubated with serum free medium (SFM) for 24 hrs. Cells were then treated with His-Cltx at concentrations ranging from 30 nM to 3000 nM for 10 min or 30 min at 37° C. Cells were washed and replenished with serum free medium and at post-incubation periods of 10 min, 30 min and 24 hrs, conditioned media was collected from all samples and analyzed for matrix-metalloproteinase-2 activity by gelatinase activity assay as well as Western blots analysis for detection of matrix-metalloproteinase-2 protein. Cells treated with irrelevant His-protein were used as a negative control (untreated cells). […] Conditioned media from 10 wells were pooled for gelatinase activity assay as well as western blot analysis and data shown herein represents an average of three experiments.

glioma cells [3] = experiment: matrigel invasion assay
Excerpt: Matrigel matrix is a reconstituted basement membrane isolated from Englebreth-Holm-Swarm (EHS) mouse sarcoma, a tumor rich in extracellular matrix proteins. Matrigel-invasion chamber consisted of falcon cell culture inserts of 8 μm pore-size with a uniform layer of matrigel matrix that occludes the membrane pores. […] Cells which remained in the upper chamber were scrubbed off the inserts and the invaded cells were fixed and stained with crystal violet.

c1cnc2c(c1)ccc1cccnc12 [1-10 phenanthroline]
inhibition of cell surface gelatinolytic activity versus 300 nM chlorotoxin (glioma cells [1]): comparable
release of MMP-2 into the medium (glioma cells [2]): blocked the release
inhibition of invasion compared with chlorotoxin (glioma cells [3]; glioma cells): essentially identical inhibition
change of inhibition of glioma invasion (glioma cells [3]; treatment with Filipin): only minimally affected
